Patent US9695155B2, “Herbicidal substituted pyrimidinyloxy benzene compounds” (E. I. DU PONT DE NEMOURS AND COMPANY, priority 2013, dated 2017)

Tests used:
johnsongrass = assay: Test C postemergence; type: in vivo, Sorghum halepense; conditions: for Plant response rating (0 to 100), Johnsongrass: postemergence; for Plant response rating, Johnsongrass: Postemergence, scale 0 to 100 (0 no effect, 100 complete control)
Method in brief: (§1)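 Sown in loam/sand → sprayed pre-emergence; or grown to 1–4 leaves in peat mix → sprayed post-emergence. Same solvent/surfactant formulation both ways. Greenhouse 13–15 d. Score 0–100 visual.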

barnyardgrass [1] = assay: Test B flooded paddy test; type: in vivo, Echinochloa crus-galli; conditions: Flood, 250 g ai/ha; 0 to 100 scale where 0 is no effect and 100 is complete control
Method in brief: (§2)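 Greenhouse flooded-pot test: compounds dosed into 3 cm standing water over 2-leaf plants, flood held constant. Rated visually after 13–15 days on 0–100 (complete control = 100); a dash marks no test result.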

Italian ryegrass = assay: Test C preemergence; type: in vivo, Lolium multiflorum; conditions: for Ryegrass, Italian plant response rating: preemergence, scale 0 (no effect) to 100 (complete control)
Method in brief: as §1

large (Lg) crabgrass [2] = assay: Test A postemergence; type: in vivo, Digitaria sanguinalis
Method in brief: (§3)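 Scoring: eye-based comparison with untreated controls, 0 for no effect through 100 for complete control, at about day 10. Treatments: directed soil spray preemergence; foliar spray postemergence on 2–10 cm plants at the one- to two-leaf stage. Medium: loam soil with sand.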

wild oat = assay: Test C postemergence; type: in vivo, Avena fatua; conditions: for Plant response rating (0 to 100), Oat, Wild: postemergence; for Plant response rating, Oat, Wild: Postemergence, scale 0 to 100 (0 no effect, 100 complete control)
Method in brief: as §1

blackgrass [3] = assay: Test C postemergence; type: in vivo, Alopecurus myosuroides; conditions: for Plant response rating (0 to 100), Blackgrass: postemergence; for Plant response rating, Blackgrass: Postemergence, scale 0 to 100 (0 no effect, 100 complete control)
Method in brief: as §1

corn = assay: Test A preemergence; type: in vivo, Zea mays
Method in brief: as §3

morningglory [4] = assay: Test A postemergence; type: in vivo, Ipomoea spp.
Method in brief: as §3

blackgrass [5] = assay: Test C preemergence; type: in vivo, Alopecurus myosuroides; conditions: for Blackgrass plant response rating: preemergence, scale 0 (no effect) to 100 (complete control)
Method in brief: as §1

barnyardgrass [6] = assay: Test A preemergence; type: in vivo, Echinochloa crus-galli
Method in brief: as §3

wheat = assay: Test A postemergence; type: in vivo, Triticum aestivum
Method in brief: as §3

wheat, winter = assay: Test C preemergence; type: in vivo, Triticum aestivum; conditions: for Wheat plant response rating: preemergence, scale 0 (no effect) to 100 (complete control)
Method in brief: as §1

morningglory [7] = assay: Test A preemergence; type: in vivo, Ipomoea spp.
Method in brief: as §3

large (Lg) crabgrass [8] = assay: Test C preemergence; type: in vivo, Digitaria sanguinalis; conditions: for Crabgrass, Large plant response rating: preemergence, scale 0 (no effect) to 100 (complete control)
Method in brief: as §1

large (Lg) crabgrass [9] = assay: Test A preemergence; type: in vivo, Digitaria sanguinalis
Method in brief: as §3

Heteranthera limosa = assay: Test B flooded paddy test; type: in vivo; conditions: Flood, 250 g ai/ha; 0 to 100 scale where 0 is no effect and 100 is complete control
Method in brief: as §2

[10] = Preemergence, 31 g ai/ha, scale 0 to 100, 0 no effect, 100 complete control
[11] = 125 g ai/ha, 0 to 100 scale where 0 is no effect and 100 is complete control
[12] = 500 g ai/ha, 0 to 100 scale, 0 no effect, 100 complete control
[13] = 500 g ai/ha, 0 to 100 scale, 0 no effect, 100 complete control, approx. 10 days

## FC(F)(F)c1cnn(-c2ccccc2Oc2ncc(Cl)cn2)c1 [Compound 16]
johnsongrass; 125 g ai/ha
  Plant response rating (0 to 100), Johnsongrass: 10
johnsongrass; 250 g ai/ha
  Plant response rating (0 to 100), Johnsongrass: 10
johnsongrass; 31 g ai/ha, 13 to 15 days
  Plant response rating, Johnsongrass: 0
johnsongrass; 62 g ai/ha
  Plant response rating, Johnsongrass: 5
Barnyardgrass [1]
  Plant response rating, Barnyardgrass: 40
Italian ryegrass; 62 g ai/ha
  Ryegrass, Italian plant response rating: 30
Italian ryegrass; 125 g ai/ha
  Ryegrass, Italian plant response rating: 80
Italian ryegrass; 250 g ai/ha
  Ryegrass, Italian plant response rating: 90
Italian ryegrass; [10]
  Plant response rating, Ryegrass, Italian: 0
Large (Lg) crabgrass [2]; [11]
  Plant response rating, Crabgrass, Large: 80
Large (Lg) crabgrass [2]; [12]
  Plant response rating, Crabgrass, Large: 100
Wild oat; 125 g ai/ha
  Plant response rating (0 to 100), Oat, Wild: 35
Wild oat; 250 g ai/ha
  Plant response rating (0 to 100), Oat, Wild: 45
Wild oat; 31 g ai/ha, 13 to 15 days
  Plant response rating, Oat, Wild: 25
Wild oat; 62 g ai/ha
  Plant response rating, Oat, Wild: 35
Blackgrass [3]; 125 g ai/ha
  Plant response rating (0 to 100), Blackgrass: 30
Blackgrass [3]; 250 g ai/ha
  Plant response rating (0 to 100), Blackgrass: 70
Blackgrass [3]; 31 g ai/ha, 13 to 15 days
  Plant response rating, Blackgrass: 5
Blackgrass [3]; 62 g ai/ha
  Plant response rating, Blackgrass: 30
corn; [11]
  Corn plant response rating: 10
corn; [13]
  Corn plant response rating: 30
Morningglory [4]; [11]
  Plant response rating, Morningglory: 90
Morningglory [4]; [12]
  Plant response rating, Morningglory: 100
Blackgrass [5]; 62 g ai/ha
  Blackgrass plant response rating: 90
Blackgrass [5]; 125 g ai/ha
  Blackgrass plant response rating: 90
Blackgrass [5]; 250 g ai/ha
  Blackgrass plant response rating: 90
Blackgrass [5]; [10]
  Plant response rating, Blackgrass: 85
Barnyardgrass [6]; [11]
  Barnyardgrass plant response rating: 100
Barnyardgrass [6]; [13]
  Barnyardgrass plant response rating: 100
wheat; [11]
  Plant response rating, Wheat: 70
wheat; [12]
  Plant response rating, Wheat: 80
wheat, winter; 62 g ai/ha
  Wheat plant response rating: 0
wheat, winter; 125 g ai/ha
  Wheat plant response rating: 35
wheat, winter; 250 g ai/ha
  Wheat plant response rating: 60
wheat, winter; [10]
  Plant response rating, Wheat: 0
Morningglory [7]; [11]
  Morningglory plant response rating: 30
Morningglory [7]; [13]
  Morningglory plant response rating: 90
Large (Lg) crabgrass [8]; 62 g ai/ha
  Crabgrass, Large plant response rating: 100
Large (Lg) crabgrass [8]; 125 g ai/ha
  Crabgrass, Large plant response rating: 100
Large (Lg) crabgrass [8]; 250 g ai/ha
  Crabgrass, Large plant response rating: 100
Large (Lg) crabgrass [8]; [10]
  Plant response rating, Crabgrass, Large: 98
Large (Lg) crabgrass [9]; [11]
  Crabgrass, Large plant response rating: 100
Large (Lg) crabgrass [9]; [13]
  Crabgrass, Large plant response rating: 100
Heteranthera limosa
  Plant response rating, Ducksalad: 90
